# Laboratory results reported in PMC3630250 (Clinical cancer research : an official journal of the …, 2013).
# Tests used:
# [1] = test system: mice; details: cited from earlier work
# [2] = test system: Balb/c mice; details: twice daily for 4 days; cited from earlier work
# [3] = test system: IκBα phosphorylation in HEK293 cells; test: IκBα phosphorylation after TNFα stimulation; type: cell-based; details: HEK293, 5 and 10 min after TNFα stimulation
Compound,toxicity in mice [1],granulocytosis and LPS-induced mortality [2],inhibition of IκBα phosphorylation and degradation at early time points [3]
COc1c(Cl)cc2c([nH]c3cnccc32)c1NC(=O)c1cccnc1C [ML-120B],showed toxicity in mice,resulted in granulocytosis and LPS-induced mortality,–
NC(=O)Nc1sc(-c2ccc(F)cc2)cc1C(N)=O [TPCA1],showed toxicity in mice,–,complete inhibition
